Experiments:
[1] = system: Saos-2-His-273 cells; experiment: Colony formation assay, Saos-2-His-273; assay type: cell-based, human
Source text: Colonies were stained with Giemsa and counted 14 days after seeding.
The cells were Giemsa stained and scored for the appearance of colonies after 14 days.

[2] = system: Saos-2-His-273 cell line; experiment: Library screening / WST-1 growth suppression and growth curves, Saos-2-His-273; assay type: cell-based, human; details: for growth suppression: with vs without mutant p53 expression, WST-1
Protocol: In contrast, the effect of treatment on Saos-2 cells lacking p53 expression was rather minor. […] The degree of WST-1 reduction, which reflects a number of living cells, was measured by microplate reader at λ490 nm according to manufacturer (Roche). The growth suppression was calculated as a difference in absorbance at λ 490 nm between untreated and treated cells and expressed in a percent from untreated control. Growth suppression=100%×(control absorbance−treated absorbance)/control absorbance. […] The experimental set up was as described in FIG. 2A. The differences in a viability were statistically significant according to an independent t-test.
(§1) Saos-2-His-273 cell line stably transfected with construct allowing expression of mutant His-273 p53 in a tetracycline-dependent manner was used for screening (Selivanova et al., 1997). p53 expression was inhibited by incubation of cells with doxycycline (5 μg/ml). Cells were grown in 96-well plates at a density of 3000 cells per well with or without doxycycline and treated with 25 μM of the compounds from the NCI library of low molecular weight (LMW) compounds. After 48 hours of incubation the proliferative cell reagent WST-1 (Roche) was added to the cells. The degree of WST-1 reduction, which reflects cell viability, was measured by microplate reader at λ490 nm according to the manufacturer (Roche).
as §1, with “1997).” for “1997). p53 expression was inhibited by incubation of cells with doxycycline (5 μg/ml).”, “doxycycline. The treatment was done at a concentration of” for “doxycycline and treated with”, “each chemical” for “the compounds”, “is proportional to the” for “reflects”, “by a” for “by”, “λ 490=n” for “λ490 nm”

[3] = system: human tumour cell lines with different p53 status (p53 null, wild type p53, mutant p53); experiment: WST-1 growth suppression in cell lines with different p53 status; assay type: cell-based; details: mutant p53 vs p53 null and wild type p53 cell lines
Protocol: The degree of WST-1 reduction, which reflects a number of living cells, was measured by microplate reader at λ490 nm according to manufacturer (Roche). The growth suppression was calculated as a difference in absorbance at λ 490 nm between untreated and treated cells and expressed in a percent from untreated control. Growth suppression=100%×(control absorbance−treated absorbance)/control absorbance. […] The experimental set up was as described in FIG. 2A.
The human cell lines were as follows. p53 null: Saos-2 osteosarcoma, K562 acute myeloid leukemia, and HL60 promyelocytic leukemia Wild type p53 expressing cells: NHF normal human fibroblasts, HeLa cervical carcinoma (carries HPV E6 protein, leading to p53 degradation), U2OS osteosarcoma, and EBV-positive IARC 171 lymphoblastoid cell line. […] In addition, mouse p53 null J3D T-cell lymphoma line was used.

[4] = system: Saos-2-His-273 cells; experiment: Apoptosis induction by FACS (sub-G1, propidium iodide), Saos-2-His-273; assay type: cell-based, human; details: for time to apoptosis induction after treatment: data not shown; for p53 dependence of apoptosis induction: presence or absence of doxycyclin
Protocol: Induction of apoptosis was determined by FACS analysis of ethanol fixed cells stained with propidium iodide (PI) as percentage of a sub-G1 population. […] The percentage of dead cells in non-treated cultures and in controls treated with caspase inhibitors only was subtracted. […] Hoechst staining was used to stain cell nuclei.
(§2) Cells were placed on 12-well plate at a density of 30000/cm^2 and treated with compounds. After 48 h incubation cells were harvested by trypsinization, fixed with 70% ethanol, treated with RNase A (0.25 mg/ml) and stained with propidium iodide (0.02 mg/ml). Samples were analyzed on a Becton Dickinson FACScan. Data were analyzed by the CellQuest software, version 3.2.1.
Induction of cell death was determined by FACS analysis of ethanol-fixed cells stained with propidium iodide (PI) as percentage of sub-G1 population.

[5] = system: KRC/Y renal carcinoma cells (Phe-176 mutant p53); experiment: Apoptosis induction by FACS, KRC/Y cells; assay type: cell-based, human; details: MIRA-1 50 μM, PRIMA-1 75 μM
Protocol: The percentage of apoptotic cells was detected by FACS analysis as it was described in FIG. 3A.
as §2
Thus, it appears that the defect caused by substitution of the Cys residue at position 176 is irreversible. The substitution of this Cys residue abolishes the binding of a Zn atom which holds together the DNA-binding loops of the p53 core domain. Therefore, the unfolding of this mutant p53 protein is probably too extensive to be restored.

[6] = system: endogenous mutant p53 proteins; assay type: biochemical, human; details: cell extracts of human tumor cell lines, band shift
Protocol: PAb421 antibody was added to all reaction mixtures. […] Monoclonal antibody PAb421 was added to the reaction mixtures in lanes 2-8; PAb1801 was added to the reaction mixtures in lanes 9-15.
The GST-p53 proteins were prepared as described (Selivanova et al., 1997). Band shift assays were performed in binding buffer containing 100 mM HEPES pH 7.5, 50 mM KCl, 1 mg/ml BSA, 0.1% Triton X-100, 2 mM MgC12 and 1 mM DTT essentially as in (Selivanova et al., 1996).

[7] = system: SKOV-His-175 cells; experiment: WST-1 proliferation assay, SKOV-His-175 cells (cycloheximide, His-175-22/23 comparison); assay type: cell-based, human; details: for increase in cell survival after cycloheximide pretreatment: cycloheximide before compound, WST-1
[8] = system: p53-responsive EGFP reporter in SKOV-His-175 cells; experiment: p53-responsive EGFP reporter in SKOV-His-175 cells; assay type: cell-based, human
Protocol: FIG. 9B, mutant p53-dependent activation of the wild-type p53-responsive EGFP reporter in PRIMA-1-treated SKOV-His-175 cells. […] FIG. 9C, MIRA-1 induced wild-type p53-responsive EGFP reporter in SKOV-His-175 cells.
The p53-EGFP plasmid contains 13 synthetic p53 consensus DNA binding sites in front of the EGFP coding sequence. Transient transfections experiments were performed with Lipofectamine 2000 according to the manufacturer's recommendations (Invitrogemm Life Technologies, Groningen, The Netherlands).
We also transiently transfected SKOV-His-175 cells with a p53-responsive EGFP reporter.

[9] = system: MDM2 and p21 in SW480 colon carcinoma cells (endogenous His-273 mutant p53); experiment: Western blot of MDM2 and p21, SW480; assay type: cell-based, human
Protocol: The expression of proteins was analyzed using Western blot. […] FIG. 10C pictures induction of p53 target genes in PRIMA-1-treated SW480 colon carcinoma cells carrying endogenous His-273/Ser-309 mutant p53.

| SMILES | number of colonies, of untreated control ([1]; 5 μM, colonies counted after 14 days) | growth suppression [2] | growth suppression by p53 status [3] | time to apoptosis induction after treatment [4] | p53 dependence of apoptosis induction [4] | induction of apoptosis [5] | mutant p53 proteins with restored specific DNA binding [6] | sensitivity of SKOV-His-175 cells in comparison with SKOV-His-175-22/23 cells ([7]; after compound treatment) | increase in cell survival after cycloheximide pretreatment [7] | EGFP reporter expression ([8]; 5 μM for 24 hours) | induction of MDM2 and p21 [9] | doses inhibitory in a mutant p53-dependent manner ([1]; colony formation, 14 days) | growth of cells (growth curves) ([2]; absence of mutant p53 expression) | growth of cells (growth curves) ([2]; cells expressing mutant p53) | EGFP reporter expression ([8]; cells expressing mutant p53, 24 hours) | EGFP reporter expression ([8]; presence of doxycycline (p53 off)) |
| --- | --- | --- | --- | --- | --- | --- | --- | --- | --- | --- | --- | --- | --- | --- | --- | --- |
| CCCOCN1C(=O)C=CC1=O [MIRA-1, 1-(propoxymethyl)-maleimide] | 15% | suppressed the growth of cells expressing mutant p53 but did not affect the growth of cells lacking p53 expression | suppressed the growth of mutant p53-expressing cells more efficiently then p53 null and wild type p53 containing cells | 6 to 12 h | occurred only in the presence of p53 expression | much less prominent as compared to Saos-2-His-273 cells | 3 out of 14 | at least 3 fold | about 4 fold | induction of EGFP was also observed | induced MDM2 and p21 | – | – | – | – | – |
| O=C1C2CCN(CC2)C1(CO)CO [PRIMA-1, 2,2-bis(hydroxymethyl)-1-azabicyclo[2.2.2]octan-3-one] | – | suppressed the growth of cells expressing mutant p53 but did not affect the growth of cells lacking p53 expression | suppressed the growth of mutant p53-expressing cells more efficiently then p53 null and wild type p53 containing cells | 48 h | occurred only in the presence of p53 expression | much less prominent as compared to Saos-2-His-273 cells | 13 out of 14 | – | 4 fold | – | induced MDM2 and p21 | 50 to 100 µM | only caused a minor reduction in growth rate | completely inhibited growth | strong induction of EGFP expression | did not express detectable levels of EGFP |
